Results from ChEMBL document CHEMBL5678812, “Inhibitors of p21-activated kinases (PAKs)” (J Med Chem, 2015).
≈ marks a conversion by molar mass, not a printed value.

Assays:
MDA-MB-231 = assay: Antitumor activity against human MDA-MB-231 cells xenografted in mouse assessed as tumor growth inhibition at 7.5 to 30 mg/kg, po measured for 9 to 18 days; type: functional; details: dose 7.5-30 mg/kg, time 9-18 day
[1] = target: Cyclin-dependent kinase 7 (Homo sapiens, UniProt P50613); assay: Inhibition of CDK7 (unknown origin)
M24met [2] = assay: Antitumor activity against human M24met cells xenografted in mouse assessed as tumor growth inhibition at 7.5 to 30 mg/kg, po measured for 9 to 18 days; type: functional; details: dose 7.5-30 mg/kg, time 9-18 day
A549 = assay: Antitumor activity against human A549 cells xenografted in mouse assessed as tumor growth inhibition at 7.5 to 30 mg/kg, po measured for 9 to 18 days; type: functional; details: dose 7.5-30 mg/kg, time 9-18 day
[3] = Inhibition of p53/pin 1 (unknown origin) interaction; set-up: species or system Homo sapiens
[4] = target: Tumour suppressor p53/oncoprotein Mdm2 (Homo sapiens, UniProt P04637+Q00987); assay: Inhibition of MDM2/p53 (unknown origin) interaction; type: protein assay
COLO 205 = assay: Antitumor activity against human COLO 205 cells xenografted in mouse assessed as tumor growth inhibition at 7.5 to 30 mg/kg, po measured for 9 to 18 days; type: functional; details: dose 7.5-30 mg/kg, time 9-18 day
HCT-116 [5] = assay: Antitumor activity against human HCT-116 cells xenografted in mouse assessed as tumor growth inhibition at 7.5 to 30 mg/kg, po measured for 9 to 18 days; type: functional; details: dose 7.5-30 mg/kg, time 9-18 day
[6] = target: Serine/threonine-protein kinase PAK 6 (Homo sapiens, UniProt Q9NQU5); assay: Inhibition of recombinant PAK6 (unknown origin)
[7] = target: T1, Serine/threonine-protein kinase PAK 4 (Homo sapiens, UniProt O96013); assay: Inhibition of PAK4 (unknown origin)
Target sequence in this assay (O96013 whole entry): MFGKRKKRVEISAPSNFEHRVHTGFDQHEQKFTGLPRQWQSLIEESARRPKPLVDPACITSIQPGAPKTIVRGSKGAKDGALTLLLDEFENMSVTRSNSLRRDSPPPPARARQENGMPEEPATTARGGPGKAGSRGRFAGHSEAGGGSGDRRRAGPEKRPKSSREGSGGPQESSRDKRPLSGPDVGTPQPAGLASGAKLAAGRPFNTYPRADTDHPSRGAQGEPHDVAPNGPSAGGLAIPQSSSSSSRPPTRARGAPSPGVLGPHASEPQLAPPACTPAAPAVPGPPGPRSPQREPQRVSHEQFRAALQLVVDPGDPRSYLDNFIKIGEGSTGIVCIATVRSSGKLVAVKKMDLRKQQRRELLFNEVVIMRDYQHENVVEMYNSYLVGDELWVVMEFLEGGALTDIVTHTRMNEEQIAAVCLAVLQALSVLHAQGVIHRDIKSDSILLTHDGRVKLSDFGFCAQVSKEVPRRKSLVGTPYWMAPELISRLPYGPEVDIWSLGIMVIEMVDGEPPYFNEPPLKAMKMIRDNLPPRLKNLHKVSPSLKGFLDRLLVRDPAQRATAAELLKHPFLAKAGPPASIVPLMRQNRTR

HCT-116 [8] = assay: Antitumor activity against human HCT-116 cells xenografted in mouse assessed as downregulation of GEF-H1 phosphorylation at 25 mg/kg, po measured after 18 hrs; type: functional
[9] = Apparent permeability across apical to basolateral side in human Caco-2 cells; type: ADME, cell-based
[10] = target: Serine/threonine-protein kinase PAK 4 (Mus musculus, UniProt Q8BTW9); assay: Inhibition of PAK4 in mouse NIH3T3 cells assessed as reduction in phosphorylated GEF-H1 accumulation incubated for 30 mins by immunoblotting analysis; type: cell-based
[11] = Kinetic solubility of compound; type: physicochemical; details: read-out: Kinetic_solubility
[12] = target: Serine/threonine-protein kinase PAK 2 (Homo sapiens, UniProt Q13177); assay: Binding affinity to PAK2 (unknown origin) assessed as dissociation constant
HCT-116 [13] = assay: Antitumor activity against human HCT-116 cells xenografted in mouse assessed as tumor growth inhibition at 12 mg/kg, po; type: functional; details: read-out: TGI
HCT-116 [14] = assay: Antitumor activity against human HCT-116 cells xenografted in mouse assessed as tumor growth inhibition at 20 mg/kg, po; type: functional; details: read-out: TGI
[15] = Oral bioavailability in dog at 10 mg/kg; type: ADME, organism-based, Canis lupus familiaris; details: in vivo
[16] = Clearance in dog at 10 mg/kg, po; type: ADME, organism-based, Canis lupus familiaris; details: in vivo
M24met [17] = assay: Antitumor activity against human M24met cells xenografted in mouse assessed as tumor growth inhibition at 15 mg/kg, po; type: functional; details: read-out: TGI
[18] = Half life in dog at 10 mg/kg, po; type: ADME, organism-based, Canis lupus familiaris; details: in vivo
[19] = Clearance in rat at 10 mg/kg, po; type: ADME, organism-based; details: in vivo
[20] = target: T1, Serine/threonine-protein kinase PAK 4; assay: Inhibition of PAK4 (unknown origin) in presence of ATP by Z-LYTE enzymatic kinase assay
Target sequence in this assay (O96013 whole entry): as above

[21] = target: T1, Serine/threonine-protein kinase PAK 4; assay: Inhibition of PAK4 (unknown origin) using 5-FAM-AhxKKRNRRLSVA-amide as substrate incubated for 90 mins by caliper off-chip mobility shift assay
Target sequence in this assay (O96013 whole entry): as above

[22] = target: T1, Serine/threonine-protein kinase PAK 4; assay: Inhibition of PAK4 (unknown origin) assessed as inhibition constant
Target sequence in this assay (O96013 whole entry): as above

[23] = target: T1, Serine/threonine-protein kinase PAK 4; assay: Binding affinity to PAK4 (unknown origin) assessed as dissociation constant
Target sequence in this assay (O96013 whole entry): as above

[24] = target: Serine/threonine-protein kinase PAK 5 (Homo sapiens, UniProt Q9P286); assay: Binding affinity to PAK7 (unknown origin) assessed as dissociation constant
[25] = target: Serine/threonine-protein kinase PAK 3 (Homo sapiens, UniProt O75914); assay: Binding affinity to PAK3 (unknown origin) assessed as dissociation constant
[26] = target: T1, Serine/threonine-protein kinase PAK 4; assay: Inhibition of PAK4 (unknown origin) at 10 uM relative to control
Target sequence in this assay (O96013 whole entry, looked up): as the sequence (O96013 whole entry) above

Sequence of Serine/threonine-protein kinase PAK 4 (Mus musculus, UniProt Q8BTW9) (Q8BTW9 whole entry): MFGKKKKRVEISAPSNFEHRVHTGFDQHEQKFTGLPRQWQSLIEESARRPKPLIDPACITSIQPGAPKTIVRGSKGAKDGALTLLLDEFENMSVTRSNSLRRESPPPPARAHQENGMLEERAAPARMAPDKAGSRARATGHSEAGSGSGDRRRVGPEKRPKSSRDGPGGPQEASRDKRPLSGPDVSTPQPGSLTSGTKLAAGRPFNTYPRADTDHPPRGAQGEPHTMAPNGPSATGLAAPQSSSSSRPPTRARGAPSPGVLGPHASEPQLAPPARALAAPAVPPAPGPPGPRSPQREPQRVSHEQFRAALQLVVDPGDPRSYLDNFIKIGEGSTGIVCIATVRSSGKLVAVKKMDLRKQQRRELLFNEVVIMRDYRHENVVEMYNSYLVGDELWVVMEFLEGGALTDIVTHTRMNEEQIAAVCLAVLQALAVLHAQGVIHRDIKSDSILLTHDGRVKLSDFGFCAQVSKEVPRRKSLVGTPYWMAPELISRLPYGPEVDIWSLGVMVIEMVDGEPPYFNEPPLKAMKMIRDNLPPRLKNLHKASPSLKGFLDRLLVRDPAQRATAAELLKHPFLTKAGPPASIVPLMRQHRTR
Sequence of Serine/threonine-protein kinase PAK 2 (Q13177 whole entry): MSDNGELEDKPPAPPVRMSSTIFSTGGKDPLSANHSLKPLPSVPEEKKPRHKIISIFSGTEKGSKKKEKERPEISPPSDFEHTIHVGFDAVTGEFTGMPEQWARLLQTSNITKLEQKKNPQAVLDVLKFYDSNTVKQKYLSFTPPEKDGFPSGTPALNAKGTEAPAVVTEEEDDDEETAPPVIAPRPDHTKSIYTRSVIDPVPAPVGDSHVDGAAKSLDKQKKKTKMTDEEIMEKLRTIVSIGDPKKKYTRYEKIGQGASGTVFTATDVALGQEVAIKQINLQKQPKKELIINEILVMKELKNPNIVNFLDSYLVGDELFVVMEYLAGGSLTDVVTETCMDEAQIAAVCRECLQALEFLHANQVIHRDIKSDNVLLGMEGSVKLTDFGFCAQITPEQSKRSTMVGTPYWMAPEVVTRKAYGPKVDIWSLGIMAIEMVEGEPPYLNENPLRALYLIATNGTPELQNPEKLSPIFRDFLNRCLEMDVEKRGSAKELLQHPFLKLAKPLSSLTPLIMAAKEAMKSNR
Sequence of Serine/threonine-protein kinase PAK 6 (Q9NQU5 whole entry): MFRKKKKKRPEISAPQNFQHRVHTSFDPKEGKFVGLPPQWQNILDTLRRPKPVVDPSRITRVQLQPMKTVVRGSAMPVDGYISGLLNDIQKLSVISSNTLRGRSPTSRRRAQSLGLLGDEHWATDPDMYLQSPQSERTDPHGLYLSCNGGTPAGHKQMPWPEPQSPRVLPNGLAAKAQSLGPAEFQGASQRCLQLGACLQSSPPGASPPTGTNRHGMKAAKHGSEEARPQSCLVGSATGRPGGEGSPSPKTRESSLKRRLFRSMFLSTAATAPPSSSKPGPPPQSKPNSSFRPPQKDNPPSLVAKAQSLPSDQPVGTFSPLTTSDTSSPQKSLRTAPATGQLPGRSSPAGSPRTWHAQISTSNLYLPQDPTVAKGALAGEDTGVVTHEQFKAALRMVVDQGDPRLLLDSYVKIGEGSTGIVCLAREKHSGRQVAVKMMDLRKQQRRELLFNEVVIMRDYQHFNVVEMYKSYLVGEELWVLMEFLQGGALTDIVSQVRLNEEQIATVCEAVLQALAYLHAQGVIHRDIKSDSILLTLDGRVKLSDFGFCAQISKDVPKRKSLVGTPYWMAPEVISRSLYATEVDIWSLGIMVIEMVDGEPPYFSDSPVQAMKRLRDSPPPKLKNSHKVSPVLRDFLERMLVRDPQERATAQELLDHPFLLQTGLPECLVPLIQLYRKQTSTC
Sequence of Tumour suppressor p53/oncoprotein Mdm2 (P04637 whole entry): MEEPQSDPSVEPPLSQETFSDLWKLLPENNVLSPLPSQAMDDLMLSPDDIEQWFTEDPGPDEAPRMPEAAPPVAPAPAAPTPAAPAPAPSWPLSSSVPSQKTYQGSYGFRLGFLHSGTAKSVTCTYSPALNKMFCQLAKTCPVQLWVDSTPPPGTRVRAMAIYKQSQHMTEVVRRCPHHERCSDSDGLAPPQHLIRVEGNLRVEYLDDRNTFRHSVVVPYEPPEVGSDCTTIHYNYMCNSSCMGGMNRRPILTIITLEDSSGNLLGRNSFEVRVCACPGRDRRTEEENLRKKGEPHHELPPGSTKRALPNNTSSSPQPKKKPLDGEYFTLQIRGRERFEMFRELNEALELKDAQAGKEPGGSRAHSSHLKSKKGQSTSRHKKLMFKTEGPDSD
Sequence of Tumour suppressor p53/oncoprotein Mdm2 (Q00987 whole entry): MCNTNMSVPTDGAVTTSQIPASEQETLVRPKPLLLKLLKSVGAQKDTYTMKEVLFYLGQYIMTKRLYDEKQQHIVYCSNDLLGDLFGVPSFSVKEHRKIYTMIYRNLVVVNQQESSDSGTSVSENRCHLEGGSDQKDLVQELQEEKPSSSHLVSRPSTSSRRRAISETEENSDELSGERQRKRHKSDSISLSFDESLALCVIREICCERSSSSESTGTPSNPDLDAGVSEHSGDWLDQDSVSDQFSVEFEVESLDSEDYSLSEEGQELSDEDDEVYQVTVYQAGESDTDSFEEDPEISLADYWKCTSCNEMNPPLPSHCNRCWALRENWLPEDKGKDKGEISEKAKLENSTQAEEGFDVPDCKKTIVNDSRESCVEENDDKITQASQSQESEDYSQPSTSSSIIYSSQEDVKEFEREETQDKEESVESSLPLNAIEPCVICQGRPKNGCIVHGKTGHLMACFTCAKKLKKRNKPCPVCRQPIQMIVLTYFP
Sequence of Cyclin-dependent kinase 7 (P50613 whole entry): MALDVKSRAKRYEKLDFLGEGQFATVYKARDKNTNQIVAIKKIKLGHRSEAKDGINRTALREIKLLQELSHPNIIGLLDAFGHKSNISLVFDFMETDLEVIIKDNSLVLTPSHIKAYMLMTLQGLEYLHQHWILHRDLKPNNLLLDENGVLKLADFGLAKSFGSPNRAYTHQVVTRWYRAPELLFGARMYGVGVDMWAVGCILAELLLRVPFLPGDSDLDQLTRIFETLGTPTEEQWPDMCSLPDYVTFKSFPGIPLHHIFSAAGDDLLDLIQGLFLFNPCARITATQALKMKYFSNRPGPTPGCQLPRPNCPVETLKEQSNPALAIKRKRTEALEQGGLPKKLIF
Sequence of Serine/threonine-protein kinase PAK 3 (O75914 whole entry): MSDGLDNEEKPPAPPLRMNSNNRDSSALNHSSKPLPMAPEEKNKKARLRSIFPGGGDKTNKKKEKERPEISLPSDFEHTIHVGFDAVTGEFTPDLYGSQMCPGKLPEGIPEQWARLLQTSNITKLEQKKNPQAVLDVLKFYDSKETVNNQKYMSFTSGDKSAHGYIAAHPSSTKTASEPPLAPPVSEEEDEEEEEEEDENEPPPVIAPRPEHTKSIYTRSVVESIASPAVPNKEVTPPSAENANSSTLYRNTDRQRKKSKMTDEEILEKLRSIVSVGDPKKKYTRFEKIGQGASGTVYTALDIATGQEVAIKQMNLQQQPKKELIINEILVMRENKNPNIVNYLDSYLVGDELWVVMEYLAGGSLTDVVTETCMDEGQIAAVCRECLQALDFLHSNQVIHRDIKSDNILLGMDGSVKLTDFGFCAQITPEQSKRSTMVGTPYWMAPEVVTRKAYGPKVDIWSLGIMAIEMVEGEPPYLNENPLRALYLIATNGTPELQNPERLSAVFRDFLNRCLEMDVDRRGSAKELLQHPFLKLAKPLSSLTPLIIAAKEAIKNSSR

## Cc1nc(Nc2n[nH]c3c2CN(C(=O)N[C@H](CN(C)C)c2ccccc2)C3(C)C)c2sccc2n1 [PF-03758309]
MDA-MB-231
  TGI: >70%
[1]
  IC50: 7 nM
M24met [2]
  TGI: >70%
A549
  TGI: >70%
[3]
  IC50: 5.7 nM
[4]
  IC50: 5.6 nM
COLO 205
  TGI: >70%
HCT-116 [5]
  TGI: >70%
[6]
  IC50: ~20 nM

## COc1nc(NCCc2c[nH]c3ccccc23)nc(Nc2ccc3[nH]ncc3c2)n1
[7]
  IC50: 790 nM

## CN(C)C[C@@H](NC(=O)N1Cc2c(NC(=O)c3ccccc3)n[nH]c2C1(C)C)c1ccccc1
HCT-116 [8]
  Activity: ~61%
[9]
  Papp A→B: 0.1 ×10⁻⁶ cm/s
[10]
  EC50: 32 nM

## CN1CCN(C(=O)N2Cc3c(NC(=O)c4cccc(Oc5ccccc5)c4)n[nH]c3C2(C)C)[C@@H](Cc2ccccc2)C1
[10]
  EC50: 810 nM

## CC(C)NC(=O)N1CCC(NC2=Nc3cc(F)ccc3N(CC(F)F)c3ccc(Cl)cc32)C1 (stereo not given)
[11]
  solubility kinetic: 55 µM (≈ 26.4 µg/mL)
[12]
  Kd: 400 nM

## CN(C)C[C@@H](OC(=O)N1Cc2c(NC(=O)C(C)(C)C)n[nH]c2C1(C)C)c1ccccc1
HCT-116 [13]
  inhibition in vivo at 12 mg/kg: 37%
[9]
  Papp A→B: 1.7 ×10⁻⁶ cm/s
HCT-116 [14]
  inhibition in vivo at 20 mg/kg: 52%
[15]
  bioavailability: 20%
[16]
  CL/F: 12 mL/min/kg
M24met [17]
  inhibition in vivo at 15 mg/kg: 68%
[18]
  half-life: 2.2 h
[19]
  CL/F: 52 mL/min/kg
[10]
  EC50: 4 nM

## CCn1c(=O)c(-c2ccc(-c3cncs3)cc2Cl)cc2cnc(Nc3ccc(N4CCN(C)CC4)cc3)nc21
[20]
  IC50: > 10000 nM

## CCn1c(=O)c(-c2ccc(-c3noc(C)n3)cc2Cl)cc2cnc(Nc3ccc(C4CCN(C)CC4)cc3)nc21
[7]
  IC50: 960 nM

## O=C(c1ccccc1Cl)c1n[nH]c2ncc(-c3cnn(C4CCNCC4)c3)cc12
[21]
  IC50: 550 nM

## N[C@@H]1[C@H]2CN(c3nc(Nc4cc(C5CC5)[nH]n4)c4sccc4n3)C[C@@H]12
[22]
  Ki: 4 nM

## CN(C)C[C@@H](NC(=O)c1ccc2[nH]nc(-c3nc4ccccc4[nH]3)c2c1)c1ccccc1
[10]
  EC50: 13 nM

## CCN1c2ccc(F)cc2N=C(NC2CCN(C(=O)NC(C)(C)C)C2)c2cc(Cl)ccc21 (stereo not given)
[23]
  Kd: > 40000 nM
[24]
  Kd: > 40000 nM
[25]
  Kd: > 40000 nM
[12]
  Kd: 1100 nM

## CCn1cnc2c(Nc3cccc(Cl)c3)nc(NC3CCCCC3N)nc21 (stereo not given)
[26]
  inhibition: 44%
